# Patent US20230085307A1, “PYRIDAZINONE COMPOUND AND HERBICIDE” (NISSAN CHEMICAL CORPORATION, priority 2019, published 2023)
# How the values were obtained:
# [1] = test system: late watergrass; assay: Test Example 1: herbicidal activity, application before weed generation under submerged conditions (Table 16, symbol A); format: in vivo, late watergrass (Echinochloa oryzicola); conditions: amount of applied herbicide 320 g/ha
# Summary of the method: (§1)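 Emulsion formulation, water-diluted to set dose, was put onto the flooded surface (4 cm depth, alluvial soil) the same day weeds were sown and 2.5-leaf rice transplanted. After 3 weeks at 25-30 °C under glass, each species was rated 0 (≤5% kill) to 5 (≥90% kill).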
# [2] = test system: Japanese bulrush; assay: Test Example 1: herbicidal activity, application before weed generation under submerged conditions (Table 16, symbol B); format: in vivo, Japanese bulrush (Schoenoplectus juncoides); conditions: amount of applied herbicide 320 g/ha
# Summary of the method: as §1
# [3] = test system: oval-leafed pondweed; assay: Test Example 1: herbicidal activity, application before weed generation under submerged conditions (Table 16, symbol C); format: in vivo, oval-leafed pondweed (Monochoria vaginalis); conditions: amount of applied herbicide 320 g/ha
# Summary of the method: as §1
# [4] = test system: barnyard grass; assay: Test Example 3: herbicidal effect by foliage application, Wagner pot (Table 18, symbol H); format: in vivo, barnyard grass (Echinochloa crus-galli); conditions: for herbicidal effect on H: barnyard grass: amount of applied herbicide 320 g/ha; for herbicidal effect on barnyard grass (H): 320 g/ha
# Summary of the method: (§2)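 Plants were sown in alluvial soil held under 0.1–0.5 cm standing water and grown 14 days in a greenhouse at 25–30 °C. An emulsifiable formulation, water-diluted to the set dose, was then sprayed onto the foliage, and effects were scored three weeks later using previously defined criteria.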
# [5] = test system: Chinese sprangletop; assay: Test Example 3: herbicidal effect by foliage application, Wagner pot (Table 18, symbol D); format: in vivo, chinese sprangletop (Leptochloa chinensis); conditions: for herbicidal effect on D: Chinese sprangletop: amount of applied herbicide 320 g/ha; for herbicidal effect on Chinese sprangletop (D): 320 g/ha
# Summary of the method: as §2
# [6] = test system: rice flat sedge; assay: Test Example 3: herbicidal effect by foliage application, Wagner pot (Table 18, symbol E); format: in vivo, rice flat sedge (Cyperus iria); conditions: for herbicidal effect on E: rice flat sedge: amount of applied herbicide 320 g/ha; for herbicidal effect on rice flat sedge (E): 320 g/ha
# Summary of the method: as §2
# [7] = test system: southern crabgrass; assay: Test Example 5: herbicidal effect by foliage application, plastic box (Table 20, symbol F); format: in vivo, southern crabgrass (Digitaria ciliaris); conditions: 320 g/ha; for F: southern crabgrass, herbicidal effect grade: foliage application, three weeks after application; for herbicidal effect on F: southern crabgrass (evaluation grade 0-5): foliage application after 14-day growth, evaluated three weeks after application
# Summary of the method: (§3)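 Post-emergence foliar test in sterilized diluvial soil. Compound applied as water-diluted emulsion at a predetermined rate to 14-day-old plants; evaluation at three weeks.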
# [8] = test system: green foxtail; assay: Test Example 5: herbicidal effect by foliage application, plastic box (Table 20, symbol G); format: in vivo, green foxtail (Setaria viridis); conditions: 320 g/ha; for G: green foxtail, herbicidal effect grade: foliage application, three weeks after application; for herbicidal effect on G: green foxtail (evaluation grade 0-5): foliage application after 14-day growth, evaluated three weeks after application
# Summary of the method: as §3
# [9] = test system: barnyard grass; assay: Test Example 5: herbicidal effect by foliage application, plastic box (Table 20, symbol H); format: in vivo, barnyard grass (Echinochloa crus-galli); conditions: 320 g/ha; for H: barnyard grass, herbicidal effect grade: foliage application, three weeks after application; for herbicidal effect on H: barnyard grass (evaluation grade 0-5): foliage application after 14-day growth, evaluated three weeks after application
# Summary of the method: as §3
# [10] = test system: wild oat; assay: Test Example 5: herbicidal effect by foliage application, plastic box (Table 20, symbol I); format: in vivo, wild oat (Avena fatua); conditions: 320 g/ha; for I: wild oat, herbicidal effect grade: foliage application, three weeks after application; for herbicidal effect on I: wild oat (evaluation grade 0-5): foliage application after 14-day growth, evaluated three weeks after application
# Summary of the method: as §3
# [11] = test system: blackgrass; assay: Test Example 5: herbicidal effect by foliage application, plastic box (Table 20, symbol J); format: in vivo, blackgrass (Alopecurus myosuroides); conditions: 320 g/ha; for J: blackgrass, herbicidal effect grade: foliage application, three weeks after application; for herbicidal effect on J: blackgrass (evaluation grade 0-5): foliage application after 14-day growth, evaluated three weeks after application
# Summary of the method: as §3
# [12] = test system: Italian ryegrass; assay: Test Example 5: herbicidal effect by foliage application, plastic box (Table 20, symbol K); format: in vivo, Italian ryegrass (Lolium multiflorum); conditions: 320 g/ha; for K: Italian ryegrass, herbicidal effect grade: foliage application, three weeks after application; for herbicidal effect on K: Italian ryegrass (evaluation grade 0-5): foliage application after 14-day growth, evaluated three weeks after application
# Summary of the method: as §3
# [13] = test system: windgrass; assay: Test Example 5: herbicidal effect by foliage application, plastic box (Table 20, symbol L); format: in vivo, windgrass (Apera spica-venti); conditions: 320 g/ha; for L: windgrass, herbicidal effect grade: foliage application, three weeks after application; for herbicidal effect on L: windgrass (evaluation grade 0-5): foliage application after 14-day growth, evaluated three weeks after application
# Summary of the method: as §3
# [14] = test system: velvetleaf; assay: Test Example 5: herbicidal effect by foliage application, plastic box (Table 20, symbol M); format: in vivo, velvetleaf (Abutilon theophrasti); conditions: 320 g/ha; for M: velvetleaf, herbicidal effect grade: foliage application, three weeks after application; for herbicidal effect on M: velvetleaf (evaluation grade 0-5): foliage application after 14-day growth, evaluated three weeks after application
# Summary of the method: as §3
# [15] = test system: redroot pigweed; assay: Test Example 5: herbicidal effect by foliage application, plastic box (Table 20, symbol N); format: in vivo, redroot pigweed (Amaranthus retroflexus); conditions: 320 g/ha; for N: redroot pigweed, herbicidal effect grade: foliage application, three weeks after application; for herbicidal effect on N: redroot pigweed (evaluation grade 0-5): foliage application after 14-day growth, evaluated three weeks after application
# Summary of the method: as §3
# [16] = test system: lambsquarters; assay: Test Example 5: herbicidal effect by foliage application, plastic box (Table 20, symbol O); format: in vivo, lambsquarters (Chenopodium album); conditions: 320 g/ha; for O: lambsquarters, herbicidal effect grade: foliage application, three weeks after application; for herbicidal effect on O: lambsquarters (evaluation grade 0-5): foliage application after 14-day growth, evaluated three weeks after application
# Summary of the method: as §3
# [17] = test system: chickweed; assay: Test Example 5: herbicidal effect by foliage application, plastic box (Table 20, symbol P); format: in vivo, common chickweed (Stellaria media); conditions: 320 g/ha; for P: chickweed, herbicidal effect grade: foliage application, three weeks after application; for herbicidal effect on P: chickweed (evaluation grade 0-5): foliage application after 14-day growth, evaluated three weeks after application
# Summary of the method: as §3
# [18] = test system: persian speedwell; assay: Test Example 5: herbicidal effect by foliage application, plastic box (Table 20, symbol R); format: in vivo, Persian speedwell (Veronica persica); conditions: 320 g/ha; for R: persian speedwell, herbicidal effect grade: foliage application, three weeks after application; for herbicidal effect on R: persian speedwell (evaluation grade 0-5): foliage application after 14-day growth, evaluated three weeks after application
# Summary of the method: as §3
Compound,"Herbicidal effect, A: late watergrass [1]","Herbicidal effect, B: Japanese bulrush [2]","Herbicidal effect, C: oval-leafed pondweed [3]",herbicidal effect on H: barnyard grass [4],herbicidal effect on D: Chinese sprangletop [5],herbicidal effect on E: rice flat sedge [6],"F: southern crabgrass, herbicidal effect grade [7]","G: green foxtail, herbicidal effect grade [8]","H: barnyard grass, herbicidal effect grade [9]","I: wild oat, herbicidal effect grade [10]","J: blackgrass, herbicidal effect grade [11]","K: Italian ryegrass, herbicidal effect grade [12]","L: windgrass, herbicidal effect grade [13]","M: velvetleaf, herbicidal effect grade [14]","N: redroot pigweed, herbicidal effect grade [15]","O: lambsquarters, herbicidal effect grade [16]","P: chickweed, herbicidal effect grade [17]","R: persian speedwell, herbicidal effect grade [18]",herbicidal effect on barnyard grass (H) [4],herbicidal effect on Chinese sprangletop (D) [5],other results
COc1ccccc1-c1sc2cc(F)ccc2c1-c1c(OC(=O)SC(C)(C)C)c(C)nn(C)c1=O [3-026],2 (Herbicidal rate of 20% or more and less than 40%),0 (Herbicidal rate of 5% or less (almost no effect)),3 (Herbicidal rate of 40% or more and less than 70%),4 (Herbicidal rate of 70% or more and less than 90%),0 (Herbicidal rate of 5% or less (almost no effect)),2 (Herbicidal rate of 20% or more and less than 40%),0 (Herbicidal rate of 5% or less (almost no effect)),0 (Herbicidal rate of 5% or less (almost no effect)),0 (Herbicidal rate of 5% or less (almost no effect)),0 (Herbicidal rate of 5% or less (almost no effect)),0 (Herbicidal rate of 5% or less (almost no effect)),0 (Herbicidal rate of 5% or less (almost no effect)),0 (Herbicidal rate of 5% or less (almost no effect)),0 (Herbicidal rate of 5% or less (almost no effect)),5 (Herbicidal rate of 90% or more (almost completely withered)),1 (Herbicidal rate of 5% or more and less than 20%),0 (Herbicidal rate of 5% or less (almost no effect)),0 (Herbicidal rate of 5% or less (almost no effect)),–,–,–
COc1ccccc1-c1sc2cc(F)ccc2c1-c1c(OCC(=O)c2ccccc2)c(C)nn(C)c1=O [3-030],2 (Herbicidal rate of 20% or more and less than 40%),0 (Herbicidal rate of 5% or less (almost no effect)),3 (Herbicidal rate of 40% or more and less than 70%),4 (Herbicidal rate of 70% or more and less than 90%),2 (Herbicidal rate of 20% or more and less than 40%),0 (Herbicidal rate of 5% or less (almost no effect)),0 (Herbicidal rate of 5% or less (almost no effect)),1 (Herbicidal rate of 5% or more and less than 20%),0 (Herbicidal rate of 5% or less (almost no effect)),0 (Herbicidal rate of 5% or less (almost no effect)),3 (Herbicidal rate of 40% or more and less than 70%),0 (Herbicidal rate of 5% or less (almost no effect)),0 (Herbicidal rate of 5% or less (almost no effect)),3 (Herbicidal rate of 40% or more and less than 70%),3 (Herbicidal rate of 40% or more and less than 70%),1 (Herbicidal rate of 5% or more and less than 20%),3 (Herbicidal rate of 40% or more and less than 70%),0 (Herbicidal rate of 5% or less (almost no effect)),–,–,–
COc1ccc2c(-c3c(OCC#N)c(C)nn(C)c3=O)c(-c3ccccc3OC)sc2c1 [3-153],3 (Herbicidal rate of 40% or more and less than 70%),3 (Herbicidal rate of 40% or more and less than 70%),3 (Herbicidal rate of 40% or more and less than 70%),–,–,–,–,–,–,–,–,–,–,–,–,–,–,–,5 (Herbicidal rate of 90% or more (almost completely withered)),2 (Herbicidal rate of 20% or more and less than 40%),herbicidal effect on rice flat sedge (E) [6]: 0 (Herbicidal rate of 5% or less (almost no effect)); herbicidal effect on F: southern crabgrass (evaluation grade 0-5) [7]: 3 (Herbicidal rate of 40% or more and less than 70%); herbicidal effect on G: green foxtail (evaluation grade 0-5) [8]: 5 (Herbicidal rate of 90% or more (almost completely withered)); herbicidal effect on H: barnyard grass (evaluation grade 0-5) [9]: 5 (Herbicidal rate of 90% or more (almost completely withered)); herbicidal effect on I: wild oat (evaluation grade 0-5) [10]: 0 (Herbicidal rate of 5% or less (almost no effect)); herbicidal effect on J: blackgrass (evaluation grade 0-5) [11]: 3 (Herbicidal rate of 40% or more and less than 70%); herbicidal effect on K: Italian ryegrass (evaluation grade 0-5) [12]: 0 (Herbicidal rate of 5% or less (almost no effect)); herbicidal effect on L: windgrass (evaluation grade 0-5) [13]: 4 (Herbicidal rate of 70% or more and less than 90%); herbicidal effect on M: velvetleaf (evaluation grade 0-5) [14]: 5 (Herbicidal rate of 90% or more (almost completely withered)); herbicidal effect on N: redroot pigweed (evaluation grade 0-5) [15]: 4 (Herbicidal rate of 70% or more and less than 90%); herbicidal effect on O: lambsquarters (evaluation grade 0-5) [16]: 4 (Herbicidal rate of 70% or more and less than 90%); herbicidal effect on P: chickweed (evaluation grade 0-5) [17]: 5 (Herbicidal rate of 90% or more (almost completely withered)); herbicidal effect on R: persian speedwell (evaluation grade 0-5) [18]: 4 (Herbicidal rate of 70% or more and less than 90%)
COc1ccc(-c2sc3c(F)cccc3c2-c2c(O)c(C)nn(C)c2=O)cc1OC [4-013],3 (Herbicidal rate of 40% or more and less than 70%),0 (Herbicidal rate of 5% or less (almost no effect)),3 (Herbicidal rate of 40% or more and less than 70%),–,–,–,–,–,–,–,–,–,–,–,–,–,–,–,3 (Herbicidal rate of 40% or more and less than 70%),3 (Herbicidal rate of 40% or more and less than 70%),herbicidal effect on rice flat sedge (E) [6]: 4 (Herbicidal rate of 70% or more and less than 90%); herbicidal effect on F: southern crabgrass (evaluation grade 0-5) [7]: 1 (Herbicidal rate of 5% or more and less than 20%); herbicidal effect on G: green foxtail (evaluation grade 0-5) [8]: 5 (Herbicidal rate of 90% or more (almost completely withered)); herbicidal effect on H: barnyard grass (evaluation grade 0-5) [9]: 1 (Herbicidal rate of 5% or more and less than 20%); herbicidal effect on I: wild oat (evaluation grade 0-5) [10]: 0 (Herbicidal rate of 5% or less (almost no effect)); herbicidal effect on J: blackgrass (evaluation grade 0-5) [11]: 3 (Herbicidal rate of 40% or more and less than 70%); herbicidal effect on K: Italian ryegrass (evaluation grade 0-5) [12]: 4 (Herbicidal rate of 70% or more and less than 90%); herbicidal effect on L: windgrass (evaluation grade 0-5) [13]: 0 (Herbicidal rate of 5% or less (almost no effect)); herbicidal effect on M: velvetleaf (evaluation grade 0-5) [14]: 3 (Herbicidal rate of 40% or more and less than 70%); herbicidal effect on N: redroot pigweed (evaluation grade 0-5) [15]: 0 (Herbicidal rate of 5% or less (almost no effect)); herbicidal effect on O: lambsquarters (evaluation grade 0-5) [16]: 0 (Herbicidal rate of 5% or less (almost no effect)); herbicidal effect on P: chickweed (evaluation grade 0-5) [17]: 5 (Herbicidal rate of 90% or more (almost completely withered)); herbicidal effect on R: persian speedwell (evaluation grade 0-5) [18]: 5 (Herbicidal rate of 90% or more (almost completely withered))
